The values below are quoted from earlier work in patent US20240299549A1, “STABLE FORMULATIONS OF INDOCYANINE GREEN” (PROVEPHARM LIFE SOLUTIONS, priority 2021, published 2024).

For data set [1] the following is noted: 10 hours of storage in water and direct light.
The conditions of data set [2]: stored at 4° C. in the dark, three days.

As to `CC1(C)C(/C=C/C=C/C=C/C=C2\N(CCCCS(=O)(=O)[O-])c3ccc4ccccc4c3C2(C)C)=[N+](CCCCS(=O)(=O)[O-])c2ccc3ccccc3c21.[Na+]` [ICG, Indocyanine green], the “reduction of absorbance at spectral peak” value in data set [1] is 10%. Further, the fluorescence intensity lost in data set [2] is 20%.
